From DBAASP
In brackets after ≈: the same amount, converted by molar mass.

Key:
Assay in all cases: ≥ marks a high value that may be exact or a test limit, other limits are often not marked, values filed in µg/mL are converted to µM
[1] = test system: Bacillus subtilis ATCC 6633
[2] = test system: Candida albicans ATCC 90028
[3] = test system: Staphylococcus aureus ATCC 43300
[4] = test system: Staphylococcus aureus ATCC 6538
[5] = test system: Bacillus subtilis
[6] = test system: Candida albicans
[7] = test system: Escherichia coli
[8] = test system: Staphylococcus aureus
[9] = test system: Pseudomonas aeruginosa ATCC 9027
[10] = test system: Acinetobacter baumannii
[11] = test system: Escherichia coli ATCC 25922
[12] = test system: Klebsiella pneumoniae ATCC 700603
[13] = test system: Staphylococcus aureus ATCC 25923
[14] = test system: Escherichia coli DH5alpha
[15] = test system: Pseudomonas aeruginosa ATCC 27853

Compound: CC[C@H](C)[C@@H]1NC(=O)[C@H](C)NC(=O)[C@@H](NC(=O)[C@@H](NC(=O)[C@@H](NC(=O)[C@H](C)NC(=O)[C@@H]2CCCN2C(=O)CNC(=O)[C@@H](NC(=O)[C@H](CCCCN)NC(=O)[C@@H](NC(=O)[C@@H](NC(=O)[C@H](CC(C)C)NC(=O)[C@H](CCCN=C(N)N)NC(=O)[C@H](CC(C)C)NC(=O)[C@@H](NC(=O)CNC(=O)[C@@H]2CCCN2C(=O)[C@H](CC(C)C)NC(=O)[C@@H](N)Cc2ccccc2)C(C)C)C(C)C)[C@@H](C)O)C(C)C)C(C)C)C(C)C)CSSC[C@@H](C(=O)O)NC(=O)[C@H](CC(N)=O)NC(=O)[C@H](CCCN=C(N)N)NC(=O)[C@H]([C@@H](C)O)NC1=O [FLPGVLRLVTKVGPAVVCAITRNC]
- MIC [1]: 6.3 µM (≈ 15.9 µg/mL)
- MIC [2]: ≥ 50 µM
- MIC [3]: 3.1 µM (≈ 7.83 µg/mL)
- MIC [4]: 3.1 µM (≈ 7.83 µg/mL)

Compound: CC[C@H](C)[C@H](NC(=O)[C@H](CC(C)C)NC(=O)[C@H](CC(C)C)NC(=O)[C@H](CC(=O)O)NC(=O)[C@H](CCCCN)NC(=O)[C@@H](NC(=O)[C@H](C)NC(=O)CNC(=O)[C@H](CC(C)C)NC(=O)[C@@H](NC(=O)CN)C(C)C)C(C)C)C(=O)NCC(=O)N[C@@H](C)C(=O)NCC(=O)N[C@@H](CCCCN)C(=O)N[C@@H](CO)C(=O)N[C@@H](C)C(=O)N[C@@H](C)C(=O)N[C@@H](CCC(N)=O)C(=O)N[C@@H](CO)C(=O)N[C@H](C(=O)N[C@@H](CC(C)C)C(=O)N[C@@H](CCCCN)C(=O)N[C@H](C(=O)N[C@@H](CC(C)C)C(=O)N[C@@H](CO)C(=O)N[C@H]1CSSC[C@@H](C(=O)O)NC(=O)[C@H](CC(=O)O)NC(=O)[C@H](CC(N)=O)NC(=O)[C@H](CO)NC(=O)[C@H](CC(C)C)NC(=O)[C@H](CCCCN)NC1=O)[C@@H](C)O)C(C)C [GVLGAVKDLLIGAGKSAAQSVLKTLSCKLSNDC]
- MIC [5]: 5.04 µM (≈ 16.4 µg/mL)
- MIC [6]: 0.629 µM (≈ 2.05 µg/mL)
- MIC [7]: 2.52 µM (≈ 8.21 µg/mL)
- MIC [8]: 1.26 µM (≈ 4.11 µg/mL)

Compound: CC(C)C[C@H](NC(=O)[C@@H](NC(=O)[C@H](CCCCN)NC(=O)[C@H](CCCCN)NC(=O)[C@H](C)NC(=O)[C@H](CC(C)C)NC(=O)[C@H](CCCCN)NC(=O)[C@H](C)NC(=O)[C@H](CC(C)C)NC(=O)[C@H](CC(C)C)NC(=O)[C@H](CCCCN)NC(=O)[C@H](C)NC(=O)[C@@H](N)Cc1ccccc1)C(C)C)C(N)=O [FAKLLAKLAKKVL]
- MIC [9]: 69.3 µM (≈ 99.9 µg/mL)
- MIC [4]: 3.47 µM (≈ 5 µg/mL)

Compound: CC(C)C[C@H](NC(=O)[C@H](C)NC(=O)[C@H](CCCCN)NC(=O)[C@H](CCCCN)NC(=O)[C@H](CC(C)C)NC(=O)[C@H](C)NC(=O)[C@H](CCCCN)NC(=O)[C@H](CCCCN)NC(=O)[C@H](CC(C)C)NC(=O)[C@H](CCCCN)NC(=O)[C@H](CCCCN)NC(=O)[C@H](CC(C)C)NC(=O)[C@H](C)NC(=O)[C@H](CCCCN)NC(=O)[C@H](CCCCN)NC(=O)[C@H](Cc1ccccc1)NC(=O)[C@H](CC(C)C)NC(=O)[C@H](CCCCN)NC(=O)[C@H](Cc1c[nH]c2ccccc12)NC(=O)[C@@H](N)CCCCN)C(N)=O [KWKLFKKALKKLKKALKKAL]
- MIC [9]: 4.15 µM (≈ 10 µg/mL)
- MIC [4]: 4.15 µM (≈ 10 µg/mL)

Compound: CC[C@H](C)[C@H](NC(=O)[C@H](CO)NC(=O)[C@H](C)NC(=O)[C@@H](NC(=O)[C@H](CCCCN)NC(=O)[C@@H](N)CCCCN)[C@@H](C)CC)C(=O)NCC(=O)N[C@@H](CCCCN)C(=O)N[C@@H](CCC(=O)O)C(=O)N[C@H](C(=O)N[C@@H](CC(C)C)C(=O)N[C@@H](CCCCN)C(=O)N[C@@H](C)C(=O)N[C@@H](CC(C)C)C(N)=O)C(C)C [KKIASIGKEVLKAL]
- MIC [5]: ≥ 75 µM
- MIC [7]: 100 µM (≈ 150 µg/mL)

Compound: CC(C)C[C@H](NC(=O)CNC(=O)[C@@H](NC(=O)[C@@H]1CCCN1C(=O)[C@H](CC(C)C)NC(=O)CNC(=O)[C@H](CC(N)=O)NC(=O)[C@H](CC(N)=O)NC(=O)[C@H](Cc1c[nH]c2ccccc12)NC(=O)[C@@H](NC(=O)[C@H](CCCN=C(N)N)NC(=O)[C@H](CS)NC(=O)[C@H](CCCN=C(N)N)NC(=O)[C@H](Cc1cnc[nH]1)NC(=O)[C@H](CCCCN)NC(=O)[C@H](CCCCN)NC(=O)[C@H](CCCN=C(N)N)NC(=O)[C@@H](N)CCCCN)C(C)C)[C@@H](C)O)C(=O)N[C@@H](Cc1ccc(O)cc1)C(=O)N[C@@H](CCCN=C(N)N)C(=O)N[C@@H](Cc1c[nH]c2ccccc12)C(=O)N[C@@H](CS)C(N)=O [KRKKHRCRVWNNGLPTGLYRWC]
- MIC [4]: 8 µM (≈ 22.2 µg/mL)

Compound: CC(C)C[C@H](NC(=O)[C@H](CCCCN)NC(=O)[C@H](CCCCN)NC(=O)[C@H](C)NC(=O)[C@H](CC(C)C)NC(=O)[C@H](CCCCN)NC(=O)[C@H](C)NC(=O)[C@H](CC(C)C)NC(=O)[C@H](CCCCN)NC(=O)[C@H](CCCCN)NC(=O)[C@H](CC(C)C)NC(=O)[C@H](CCCCN)NC(=O)[C@H](CCCCN)NC(=O)[C@H](C)NC(=O)[C@@H](N)Cc1ccccc1)C(N)=O [FAKKLKKLAKLAKKL]
- MIC [9]: 2.89 µM (≈ 5 µg/mL)
- MIC [4]: 5.79 µM (≈ 9.99 µg/mL)

Compound: CC[C@H](C)[C@H](NC(=O)[C@H](CC(C)C)NC(=O)[C@H](C)NC(=O)[C@@H]1CCCN1C(=O)[C@H](CC(C)C)NC(=O)CN)C(=O)N[C@@H](CO)C(=O)N[C@@H](CC(C)C)C(=O)N[C@H](C(=O)N[C@@H](CCCCN)C(=O)N[C@@H](CCCN=C(N)N)C(=O)N[C@@H](CCCCN)C(=O)N[C@@H](CCCN=C(N)N)C(=O)N[C@@H](CCC(N)=O)C(=O)N[C@@H](CCC(N)=O)C(N)=O)[C@@H](C)CC [GLPALISLIKRKRQQ]
- MIC [5]: 5.81 µM (≈ 9.99 µg/mL)
- MIC [7]: 93.5 µM (≈ 161 µg/mL)
- MIC [8]: 7.84 µM (≈ 13.5 µg/mL)

Compound: CC(C)C[C@H](NC(=O)[C@H](CCCCN)NC(=O)[C@H](C)NC(=O)[C@H](CC(C)C)NC(=O)[C@H](CC(C)C)NC(=O)[C@H](CCCCN)NC(=O)[C@H](C)NC(=O)[C@@H](N)Cc1ccccc1)C(=O)N[C@@H](C)C(=O)N[C@@H](CCCCN)C(N)=O [FAKLLAKLAK]
- MIC [9]: 181 µM (≈ 200 µg/mL)
- MIC [4]: 45.4 µM (≈ 50 µg/mL)

Compound: CC(C)C[C@H](NC(=O)[C@H](CC(C)C)NC(=O)[C@H](CCCCN)NC(=O)[C@H](C)NC(=O)[C@H](CC(C)C)NC(=O)[C@H](CCCCN)NC(=O)[C@H](CCCCN)NC(=O)[C@H](C)NC(=O)[C@H](CC(C)C)NC(=O)[C@H](CCCCN)NC(=O)[C@H](CCCCN)NC(=O)[C@H](C)NC(=O)[C@@H](N)Cc1ccccc1)C(N)=O [FAKKLAKKLAKLL]
- MIC [9]: 3.4 µM (≈ 5 µg/mL)
- MIC [4]: 3.4 µM (≈ 5 µg/mL)

Compound: CC[C@H](C)[C@@H]1NC(=O)[C@H](Cc2ccc(O)cc2)NC(=O)[C@@H](NC(=O)[C@H](CCCN=C(N)N)NC(=O)[C@H](CO)NC(=O)[C@@H](N)[C@@H](C)O)CSSC[C@@H](C(=O)N[C@@H](CO)C(=O)O)NC(=O)[C@H](C(C)C)NC(=O)[C@H](C(C)C)NC(=O)[C@H](CCCCN)NC(=O)[C@H](CCCN=C(N)N)NC(=O)[C@H](CCCN=C(N)N)NC(=O)[C@H](Cc2ccc(O)cc2)NC(=O)CNC1=O [TSRCYIGYRRKVVCS]
- MIC [5]: 9.77 µM (≈ 17.5 µg/mL)
- MIC [6]: 4.89 µM (≈ 8.74 µg/mL)
- MIC [7]: 9.77 µM (≈ 17.5 µg/mL)
- MIC [8]: 19.5 µM (≈ 35 µg/mL)

Compound: CC[C@H](C)[C@H](NC(=O)[C@H](CC(C)C)NC(=O)[C@H](CCC(N)=O)NC(=O)[C@@H](NC(=O)[C@H](CC(C)C)NC(=O)[C@H](CCCN=C(N)N)NC(=O)[C@H](CCCN=C(N)N)NC(=O)[C@@H](NC(=O)[C@H](C)NC(=O)[C@H](CCCCN)NC(=O)[C@H](CCCN=C(N)N)NC(=O)[C@@H](N)CC(C)C)[C@@H](C)O)C(C)C)C(=O)N[C@H](C(=O)N[C@@H](CO)C(=O)NCC(=O)O)C(C)C [LRKATRRLVQLIVSG]
- MIC [10]: 25 µM (≈ 42.8 µg/mL)
- MIC [11]: > 25 µM
- MIC [12]: > 25 µM
- MIC [9]: > 25 µM
- MIC [13]: > 25 µM

Compound: CC[C@H](C)[C@H](NC(=O)[C@H](Cc1ccccc1)NC(=O)[C@@H](NC(=O)[C@H](Cc1c[nH]c2ccccc12)NC(=O)[C@H](CCCN=C(N)N)NC(=O)[C@H](CCCCN)NC(=O)[C@H](CCCN=C(N)N)NC(=O)[C@H](CCCCN)NC(=O)[C@H](Cc1c[nH]c2ccccc12)NC(=O)[C@H](CC(C)C)NC(=O)[C@@H](NC(=O)[C@@H](N)Cc1ccc(O)cc1)C(C)C)[C@@H](C)CC)C(=O)O [YVLWKRKRWIFI]
- MIC [5]: 5 µM (≈ 8.54 µg/mL)
- MIC [14]: ≥ 60 µM
- MIC [15]: 150 µM (≈ 256 µg/mL)
- MIC [13]: 40 µM (≈ 68.3 µg/mL)

Compound: CC[C@H](C)[C@H](NC(=O)CNC(=O)[C@H](CCCCN)NC(=O)CNC(=O)[C@H](Cc1ccccc1)NC(=O)[C@H](C)NC(=O)[C@H](CC(C)C)NC(=O)[C@H](CCCCN)NC(=O)[C@H](C)NC(=O)[C@H](Cc1c[nH]c2ccccc12)NC(=O)[C@H](CC(C)C)NC(=O)[C@H](CCCCN)NC(=O)[C@H](C)NC(=O)[C@@H](N)Cc1ccccc1)C(=O)NCC(=O)N[C@@H](CCCCN)C(=O)N[C@H](C(=O)NCC(=O)N[C@@H](CCCCN)C(=O)N[C@@H](CCCCN)C(=O)N[C@@H](CC(C)C)C(=O)N[C@@H](CC(C)C)C(N)=O)C(C)C [FAKLWAKLAFGKGIGKVGKKLL]
- MIC [9]: 4.21 µM (≈ 10 µg/mL)
- MIC [4]: 6.32 µM (≈ 15 µg/mL)

Compound: CC[C@H](C)[C@H](NC(=O)CNC(=O)[C@H](CO)NC(=O)[C@H](CC(C)C)NC(=O)[C@H](CC(C)C)NC(=O)CN)C(=O)N[C@@H](CC(C)C)C(=O)NCC(=O)N[C@@H](C)C(=O)NCC(=O)N[C@@H](CCCCN)C(=O)N[C@@H](CCC(N)=O)C(=O)N[C@@H](CCCCN)C(=O)N[C@H](C(=O)N[C@H]1CSSC[C@@H](C(=O)O)NC(=O)[C@H](CC(C)C)NC(=O)CNC(=O)[C@H](CO)NC(=O)[C@H](CC(C)C)NC(=O)CNC1=O)C(C)C [GLLSGILGAGKQKVCGLSGLC]
- MIC [5]: 19 µM (≈ 37.5 µg/mL)
- MIC [6]: 2.37 µM (≈ 4.68 µg/mL)
- MIC [7]: 4.75 µM (≈ 9.36 µg/mL)
- MIC [8]: 9.5 µM (≈ 18.7 µg/mL)
